Legend:
[1] = tested on: patients who had left ventricular dysfunction and class II-IV congestive heart failure; conditions: cited from earlier work
[2] = tested on: patients with systolic or mixed systolic-diastolic hypertension; test: Double-blind 12-week comparison of omapatrilat and enalapril: trough pulsatile hemodynamics (cuff pressure, arterial tonometry, Doppler flow); type: in vivo, human; conditions: for Brachial pressures: Systolic pressure: trough (24 h after last dose), titrated to 80 mg omapatrilat or 40 mg enalapril; for Brachial pressures: Systolic pressure / PfPb Temporal overlap / Augmentation index / Brachial pressures: Diastolic pressure / Brachial pressures: Mean pressure / Brachial pressures: Pulse pressure / Carotid-femoral PWV / Carotid-radial PWV / Central hemodynamics: Heart rate / Central hemodynamics: Mean flow / Central hemodynamics: Peak flow / Central hemodynamics: Peripheral resistance (DSC) / Central hemodynamics: Pulse pressure / Central hemodynamics: Systolic pressure / Central stiffness parameters: Characteristic impedance (DSC) / Central stiffness parameters: First impedance modulus (DSC) / Central stiffness parameters: Proximal aortic compliance (CD) / End-systolic pressure / Forward wave, Pf / PbPf Amplitude ratio / Pressure at ti / Reflected wave arrival time, ti / Reflected wave, Pb / Systolic ejection period: mean ± SD; for PfPb Temporal overlap: % of systolic ejection period; for change in characteristic impedance / reduction in mean arterial pressure: change from baseline at 12 weeks; for change in characteristic impedance: only subjects with reduction in mean arterial pressure between 0 and −40 mmHg; for reduction in mean arterial pressure: only subjects with reduction in mean arterial pressure between 0 and −40 mmHg (68 omapatrilat, 59 enalapril); for changes in regional pulse wave velocities (carotid-femoral and carotid-radial) (FIG. 4): in vivo
Method: The following study was performed to compare treatment with the vasopeptidase inhibitor omapatrilat and the angiotensin converting enzyme inhibitor enalapril.
Study subjects. Male or female subjects age 18 years or older were eligible if they were in sinus rhythm and had systolic or mixed systolic-diastolic hypertension, defined as a seated systolic blood pressure ≧160 mmHg if newly diagnosed or ≧140 mmHg if currently treated and diastolic blood pressure ≦110 mmHG. Patients with known or suspected secondary forms of hypertension were excluded. Patients with a history of transient ischemic attacks within the prior 12 months or myocardial infarction or angina within the prior 6 months were excluded. All patients with heart failure, documented ejection fraction <45%, valvular heart disease or clinically significant peripheral vascular disease (bruit or diminished pulse in any of the brachial, radial, femoral or carotid arteries or blood pressure difference between upper extremities >6 mmHg) were excluded. Additional exclusion criteria included renal or renovascular disease, uncontrolled diabetes (glucose >200 mg/dl fasting or >220 mg/dL nonfasting), autoimmune disease, multiple drug allergies, bronchospastic disease requiring chronic medication. Laboratory exclusion criteria included hemoglobin <9 g/dl, platelet count <80,000/μl, white cell count <3000/μl, neutrophil count <1500/μl, serum potassium <3.5 or >5.2 mmol/L, alanine aminotransferase or aspartate aminotransferase greater than three times the upper limits of normal or serum creatinine >2.5 mg/dL. Failure to obtain a technically satisfactory baseline study, as determined by the core lab, was an exclusion criterion. If an initial baseline study had potentially remediable technical limitations, a repeat study was allowed within 2-9 days.
Treatment protocol: A single-blind placebo lead-in period of 1-2 weeks, during which the seated blood pressure was confirmed to be ≧160 mmHg and <200 mmHg and the diastolic pressure ≦110 mmHg, after withdrawl of antihypertensive medications, was followed by a double-blind active treatment period of 12 weeks. Baseline hemodynamic studies were performed at the end of the placebo lead-in period between 6:00 and 10:00 a.m. with the patient in a fasting state prior to taking morning medications and off all antihypertensive medications for at least 1 week. Patients were randomized within 2-9 days following an approved baseline study. Treatment was initiated with either 10 mg omapatrilat or 10 mg enalapril and was titrated at two and four weeks to doses of 40 then 80 mg omapatrilat or 20 then 40 mg enalapril. […] No concomitant antihypertensive medications were permitted during the study. A trough hemodynamic study, the primary endpoint of the trial was performed at the end of the active treatment period, 24 hours after the last prior dose of study medication, under identical conditions as the baseline study. Patients were then given one additional dose of study medication, which was followed 4 hours later by a final (peak) hemodynamic study. In order to focus on long-term effects of therapy, the primary endpoint of the study was prospectively defined as the trough change from baseline in pulsatile hemodynamics.
Hemodynamic data acquisition: Subjects were studied in the supine position after approximately 10 minutes of rest. Using a semi-automated computer-controlled device, auscultatory blood pressure was obtained 3-5 times at 2 minute intervals with a goal of obtaining 3 sequential readings that agreed to within 5 mmHg for systolic and diastolic. Arterial tonometry and ECG were obtained form the brachial, radial, femoral and carotid arteries using a custom transducer. Next, the patient was placed in the left lateral decubitus position and echocardiographic images of the left ventricular outflow tract were obtained from a parasternal long axis view. […]

Structure (SMILES) | shortening of the systolic ejection period ([2]; 12 weeks, trough) | Brachial pressures: Systolic pressure ([2]; 12 weeks) | PfPb Temporal overlap ([2]; 12 weeks, trough) | Augmentation index ([2]; 12 weeks, trough) | Brachial pressures: Diastolic pressure ([2]; 12 weeks, trough) | Brachial pressures: Mean pressure ([2]; 12 weeks, trough) | Brachial pressures: Pulse pressure ([2]; 12 weeks, trough) | Carotid-femoral PWV ([2]; 12 weeks, trough) | Carotid-radial PWV ([2]; 12 weeks, trough) | Central hemodynamics: Heart rate ([2]; 12 weeks, trough) | Central hemodynamics: Mean flow ([2]; 12 weeks, trough) | Central hemodynamics: Peak flow ([2]; 12 weeks, trough) | Central hemodynamics: Peripheral resistance (DSC) ([2]; 12 weeks, trough) | Central hemodynamics: Pulse pressure ([2]; 12 weeks, trough) | Central hemodynamics: Systolic pressure ([2]; 12 weeks, trough) | Central stiffness parameters: Characteristic impedance (DSC) ([2]; 12 weeks, trough) | Central stiffness parameters: First impedance modulus (DSC) ([2]; 12 weeks, trough) | Central stiffness parameters: Proximal aortic compliance (CD) ([2]; 12 weeks, trough) | End-systolic pressure ([2]; 12 weeks, trough) | Forward wave, Pf ([2]; 12 weeks, trough) | further results
O=C(N[C@H]1CCS[C@H]2CCC[C@@H](C(=O)O)N2C1=O)[C@H](S)Cc1ccccc1 (relative stereo) [Omapatrilat, [4S-[4α(R*),7α,10aβ]]-octahydro-4-[(2-mercapto-1-oxo-3-phenylpropyl)amino]-5-oxo-7H-pyrido[2,1-b][1,3]thiazepine-7-carboxylic acid] | not seen | 147 ± 20 mmHg | 64 ± 12 % | 19 ± 13 % | 76 ± 11 mmHg | 105 ± 13 mmHg | 71 ± 18 mmHg | 11.4 ± 3.1 m/s | 10.1 ± 1.4 m/s | 64 ± 9 min⁻¹ | 73 ± 16 mL/s | 312 ± 68 mL/s | 1986 ± 449 dyne × sec / cm^5 | 71 ± 22 mmHg | 147 ± 24 mmHg | 208 ± 70 dyne × sec / cm^5 | 323 ± 119 dyne × sec / cm^5 | 0.53 ± 0.26^† 10^−5 cm^4 / dyne | 114 ± 16 mmHg | 54 ± 16 mmHg | carotid-femoral pulse wave velocity [1]: favorable trend toward reduction; PbPf Amplitude ratio ([2]; 12 weeks, trough): 47 ± 7%; Pressure at ti ([2]; 12 weeks, trough): 132 ± 20 mmHg; Reflected wave arrival time, ti ([2]; 12 weeks, trough): 116 ± 36 ms; Reflected wave, Pb ([2]; 12 weeks, trough): 25 ± 7 mmHg; Systolic ejection period ([2]; 12 weeks, trough): 320 ± 26 ms; peripheral resistance ([2]; 12 weeks, trough, versus enalapril): reduced more; amplitude of the forward pressure wave ([2]; 12 weeks, unchanged peak flow): markedly reduced; change in characteristic impedance adjusted for baseline mean arterial pressure and change in mean arterial pressure ([2]; 12 weeks, versus enalapril, P<0.05): remained significant; change in characteristic impedance [2]: −37±58 dyne×sec/cm^5; reduction in mean arterial pressure [2]: −13.8±7.4 mmHg; changes in central pulse pressure (FIG. 2) ([2]; compared to enalapril): greater reduction in the central pulse pressure compared to enalapril; change in peripheral (brachial) systolic, diastolic, and pulse pressure (FIG. 1) ([2]; compared to enalapril, p<0.05): greater reductions in all measurements; changes in regional pulse wave velocities (carotid-femoral and carotid-radial) (FIG. 4) [2]: reduced regional pulse wave velocity; arrival time of the reflected wave (FIG. 4) ([2]; p<0.05): delayed reflected wave arrival time; characteristic impedance, a direct measure of aortic stiffness (FIG. 3) ([2]; without a change in aortic flow): significantly reduced
CCOC(=O)[C@H](CCc1ccccc1)N[C@@H](C)C(=O)N1CCC[C@H]1C(=O)O [Enalapril, reference compound] | shortening of the systolic ejection period | 155 ± 20 mmHg | 66 ± 8% | 21 ± 10 % | 81 ± 10 mmHg | 111 ± 12 mmHg | 74 ± 20 mmHg | 11.9 ± 3.7 m/s | 10.6 ± 1.8 m/s | 63 ± 8 min⁻¹ | 73 ± 16 mL/s | 314 ± 70 mL/s | 2122 ± 462 dyne × sec / cm^5 | 75 ± 23 mmHg | 156 ± 24 mmHg | 231 ± 94 dyne × sec / cm^5 | 352 ± 163 dyne × sec / cm^5 | 0.49 ± 0.28 10^−5 cm^4 / dyne | 120 ± 14 mmHg | 58 ± 17 mmHg | PbPf Amplitude ratio ([2]; 12 weeks, trough): 46 ± 8%; Pressure at ti ([2]; 12 weeks, trough): 139 ± 17 mmHg; Reflected wave arrival time, ti ([2]; 12 weeks, trough): 108 ± 25 ms; Reflected wave, Pb ([2]; 12 weeks, trough): 27 ± 8 mmHg; Systolic ejection period ([2]; 12 weeks, trough): 319 ± 27 ms; change in characteristic impedance [2]: −4±67 dyne×sec/cm^5; reduction in mean arterial pressure [2]: −12.0±8.1 mmHg; changes in regional pulse wave velocities (carotid-femoral and carotid-radial) (FIG. 4) [2]: reduced regional pulse wave velocity

— US20030144269A1, “Reducing pulse pressures and vascular stiffness in hypertensive patients by administering a vasopeptidase inhibitor” (priority 2001, published 2003)
